Measurements as given in PubChem BioAssay AID248 (DTP/NCI, 2004).
Where “and” joins values, the source holds several entries; their conditions need not be identical. Equal entries are not always repeated. Inconclusive results and toxic doses are left out. Rule as the data show it: active = T/C of 150% or more; inactive = T/C below 125%.

Test system: L1210 leukemia ip in BDF1 mice, survival T/C
Experiment: NCI In Vivo Anticancer Drug Screen. Data for tumor model L1210 Leukemia (intraperitoneal) in B6D2F1 (BDF1) mice
Settings: endpoint: mean survival time, higher = longer survival
In short: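 Each compound was tested against a transplantable tumor grown in mice. The endpoint was survival, with treated animals benchmarked against vehicle controls as a simple ratio.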

[1] = dose: 100.0 mg/kg/injection, schedule: Q01DX001 (ip), vehicle: saline
[2] = dose: 200.0 mg/kg/injection, schedule: Q01DX001 (ip), vehicle: saline
[3] = dose: 400.0 mg/kg/injection, schedule: Q01DX001 (ip), vehicle: saline
[4] = dose: 100.0 mg/kg/injection, schedule: Q04DX003 (ip), vehicle: saline
[5] = dose: 200.0 mg/kg/injection, schedule: Q04DX003 (ip), vehicle: saline
[6] = dose: 100.0 mg/kg/injection, schedule: Q01DX009 (ip), vehicle: Klucel (hydroxypropylcellulose) (HPC)
[7] = dose: 200.0 mg/kg/injection, schedule: Q01DX009 (ip), vehicle: Klucel (hydroxypropylcellulose) (HPC)
[8] = dose: 100.0 mg/kg/injection, schedule: Q01DX009 (ip), vehicle: saline with Tween-80
[9] = dose: 200.0 mg/kg/injection, schedule: Q01DX009 (ip), vehicle: saline with Tween-80
[10] = dose: 400.0 mg/kg/injection, schedule: Q01DX009 (ip), vehicle: saline with Tween-80
[11] = dose: 100.0 mg/kg/injection, schedule: Q04DX003 (ip), vehicle: saline with Tween-80
[12] = dose: 200.0 mg/kg/injection, schedule: Q04DX003 (ip), vehicle: saline with Tween-80
[13] = dose: 400.0 mg/kg/injection, schedule: Q04DX003 (ip), vehicle: saline with Tween-80
[14] = dose: 100.0 mg/kg/injection, schedule: Q01DX009 (ip), vehicle: saline

Measured: T/C

CC(C)(CBr)C(=O)O
inactive: [1] 95 % of control | [2] 95 % of control | [3] 100 % of control

CC1(NCCOC(=O)c2ccc(N)cc2)CCCCC1
inactive: dose: 75.0 mg/kg/injection, schedule: Q01DX001 (ip), vehicle: saline 100 % of control | dose: 150.0 mg/kg/injection, schedule: Q01DX001 (ip), vehicle: saline 100 % of control

O=C(O)C1CCN1Cc1ccccc1 (configuration not stated)
inactive: [4] 98 % of control | [5] 101 % of control | dose: 400.0 mg/kg/injection, schedule: Q04DX003 (ip), vehicle: saline 106 % of control

CCCN(CCC)C(=O)C(=O)OCC
inactive: dose: 6.25 mg/kg/injection, schedule: Q04DX003 (ip), vehicle: saline with Tween-80 102 % of control | dose: 12.5 mg/kg/injection, schedule: Q04DX003 (ip), vehicle: saline with Tween-80 94 % of control | dose: 25.0 mg/kg/injection, schedule: Q04DX003 (ip), vehicle: saline with Tween-80 98 % of control

CC(=O)Nc1ccc(OCCCCOc2ccccc2)cc1
inactive: [6] 87 % of control | dose: 100.0 mg/kg/injection, schedule: Q04DX003 (ip), vehicle: Klucel (hydroxypropylcellulose) (HPC) 103 % of control | [7] 97 % of control | dose: 200.0 mg/kg/injection, schedule: Q04DX003 (ip), vehicle: Klucel (hydroxypropylcellulose) (HPC) 100 % of control | dose: 400.0 mg/kg/injection, schedule: Q01DX009 (ip), vehicle: Klucel (hydroxypropylcellulose) (HPC) 92 % of control | dose: 400.0 mg/kg/injection, schedule: Q04DX003 (ip), vehicle: Klucel (hydroxypropylcellulose) (HPC) 97 % of control

CCOc1ccc(-n2c(=O)c(N=Nc3ccc(Br)cc3)c(O)n(-c3ccc(C)cc3)c2=S)cc1
inactive: dose: 50.0 mg/kg/injection, schedule: Q01DX001 (ip), vehicle: Klucel (hydroxypropylcellulose) (HPC) 95 % of control | dose: 100.0 mg/kg/injection, schedule: Q01DX001 (ip), vehicle: Klucel (hydroxypropylcellulose) (HPC) 101 % of control | dose: 200.0 mg/kg/injection, schedule: Q01DX001 (ip), vehicle: Klucel (hydroxypropylcellulose) (HPC) 101 % of control

Cc1cc(=O)[nH]c(Nc2ccccc2)n1
inactive: [8] 90 % of control | [9] 93 % of control | [10] 90 % of control

CC1(C)N=C(N)N=C(N)N1c1cccc(OCCOc2ccccc2[N+](=O)[O-])c1
inactive: dose: 10.0 mg/kg/injection, schedule: Q01DX001 (ip), vehicle: Klucel (hydroxypropylcellulose) (HPC) 108 % of control | dose: 10.0 mg/kg/injection, schedule: Q01DX009 (ip), vehicle: Klucel (hydroxypropylcellulose) (HPC) 98 % of control and 101 % of control | dose: 10.0 mg/kg/injection, schedule: Q04DX002 (ip), vehicle: Klucel (hydroxypropylcellulose) (HPC) 94 % of control and 90 % of control | dose: 10.0 mg/kg/injection, schedule: Q04DX003 (ip), vehicle: Klucel (hydroxypropylcellulose) (HPC) 96 % of control | dose: 20.0 mg/kg/injection, schedule: Q01DX001 (ip), vehicle: Klucel (hydroxypropylcellulose) (HPC) 104 % of control | dose: 20.0 mg/kg/injection, schedule: Q01DX009 (ip), vehicle: Klucel (hydroxypropylcellulose) (HPC) 102 % of control and 108 % of control | dose: 20.0 mg/kg/injection, schedule: Q04DX002 (ip), vehicle: Klucel (hydroxypropylcellulose) (HPC) 101 % of control and 120 % of control | dose: 20.0 mg/kg/injection, schedule: Q04DX003 (ip), vehicle: Klucel (hydroxypropylcellulose) (HPC) 100 % of control | dose: 40.0 mg/kg/injection, schedule: Q01DX001 (ip), vehicle: Klucel (hydroxypropylcellulose) (HPC) 101 % of control | dose: 40.0 mg/kg/injection, schedule: Q01DX009 (ip), vehicle: Klucel (hydroxypropylcellulose) (HPC) 104 % of control and 108 % of control | dose: 40.0 mg/kg/injection, schedule: Q04DX002 (ip), vehicle: Klucel (hydroxypropylcellulose) (HPC) 94 % of control and 90 % of control | dose: 40.0 mg/kg/injection, schedule: Q04DX003 (ip), vehicle: Klucel (hydroxypropylcellulose) (HPC) 102 % of control

C[n+]1ccccc1NC(=O)c1ccc(C(=O)Nc2cccc[n+]2C)cc1
inactive: dose: 7.5 mg/kg/injection, schedule: Q01DX Z (ip), vehicle: saline 98 % of control | dose: 15.0 mg/kg/injection, schedule: Q01DX Z (ip), vehicle: saline 100 % of control | dose: 30.0 mg/kg/injection, schedule: Q01DX Z (ip), vehicle: saline 87 % of control | dose: 120.0 mg/kg/injection, schedule: Q01DX Z (ip), vehicle: saline 87 % of control | dose: 240.0 mg/kg/injection, schedule: Q01DX Z (ip), vehicle: saline 91 % of control

Oc1c(Br)cc(Br)cc1C=Nc1ccc(Br)cc1.Oc1c(Br)cc(Br)cc1C=Nc1ccc(Br)cc1.[Co]
inactive: [11] 95 % of control | [12] 95 % of control | [13] 95 % of control

Br/C(=N\Nc1nn[nH]n1)c1ccccc1
inactive: [8] 93 % of control | [9] 98 % of control | [10] 95 % of control

C/C(=N/OC(=O)N(C)C)c1cc(Cl)ccc1Cl
inactive: [1] 100 % of control | [2] 100 % of control

CNNC(=O)NC
inactive: dose: 50.0 mg/kg/injection, schedule: Q01DX009 (ip), vehicle: saline 109 % of control | [14] 94 % of control

Cc1cc(Cl)cc(C)c1OC(=O)Nc1ccccc1C(F)(F)F
inactive: [14] 98 % of control | dose: 200.0 mg/kg/injection, schedule: Q01DX009 (ip), vehicle: saline 91 % of control | dose: 400.0 mg/kg/injection, schedule: Q01DX009 (ip), vehicle: saline 112 % of control

O=C(Nc1ccc(OCc2ccccc2)cc1)c1ccc([N+](=O)[O-])s1
inactive: dose: 400.0 mg/kg/injection, schedule: Q01DX005 (ip), vehicle: water 89 % of control

CCOC(=O)CCc1cc2cc(C)nnc2[nH]1
inactive: dose: 100.0 mg/kg/injection, schedule: Q04DX002 (ip), vehicle: Klucel (hydroxypropylcellulose) (HPC) 95 % of control | dose: 200.0 mg/kg/injection, schedule: Q04DX002 (ip), vehicle: Klucel (hydroxypropylcellulose) (HPC) 91 % of control | dose: 400.0 mg/kg/injection, schedule: Q04DX002 (ip), vehicle: Klucel (hydroxypropylcellulose) (HPC) 106 % of control

CCOC(CN(Cc1ccccc1)CC(OCC)OCC)OCC
inactive: dose: 50.0 mg/kg/injection, schedule: Q04DX002 (ip), vehicle: saline with Tween-80 100 % of control | dose: 100.0 mg/kg/injection, schedule: Q04DX002 (ip), vehicle: saline with Tween-80 97 % of control and 100 % of control | dose: 200.0 mg/kg/injection, schedule: Q04DX002 (ip), vehicle: saline with Tween-80 92 % of control | dose: 400.0 mg/kg/injection, schedule: Q04DX002 (ip), vehicle: saline with Tween-80 91 % of control

C[N+](C)(CC(=O)Nc1ccc(Cl)c(Cl)c1)CC(=O)c1ccc(Cl)c(Cl)c1
inactive: [11] 100 % of control | [12] 100 % of control | [13] 102 % of control

COc1ccc([N+](=O)[O-])cc1NC(=O)Nc1cccc(O)c1
inactive: dose: 50.0 mg/kg/injection, schedule: Q01DX009 (ip), vehicle: Klucel (hydroxypropylcellulose) (HPC) 90 % of control | [6] 90 % of control | [7] 90 % of control

CC(C(c1ccccc1)c1ccc(Cl)cc1)[N+](=O)[O-] (configuration not stated)
inactive: dose: 22.0 mg/kg/injection, schedule: Q01DX009 (ip), vehicle: saline with Tween-80 102 % of control | dose: 33.0 mg/kg/injection, schedule: Q01DX009 (ip), vehicle: saline with Tween-80 96 % of control | dose: 50.0 mg/kg/injection, schedule: Q01DX009 (ip), vehicle: saline with Tween-80 94 % of control | dose: 75.0 mg/kg/injection, schedule: Q01DX009 (ip), vehicle: saline with Tween-80 112 % of control | [1] 87 % of control | [8] 103 % of control | [11] 95 % of control | [4] 102 % of control | [2] 95 % of control | [12] 102 % of control | [5] 89 % of control | [3] 88 % of control

CCN(C)CCC(CN)(CCN(C)CC)c1cccc2ccccc12
inactive: dose: 12.5 mg/kg/injection, schedule: Q04DX003 (ip), vehicle: saline 93 % of control | dose: 25.0 mg/kg/injection, schedule: Q04DX003 (ip), vehicle: saline 101 % of control | dose: 50.0 mg/kg/injection, schedule: Q04DX003 (ip), vehicle: saline 93 % of control
